From patent publication US20130287873A1, “PHARMACEUTICAL COMPOSITION AND METHOD FOR PREPARING A MEDICATION FOR PROMOTING WOUND HEALING” (INDUSTRIAL TECHNOLOGY RESEARCH INSTITUTE, priority 2012, published 2013)

Tested on: human umbilical vein endothelial cells
Experiment: Proliferation of human umbilical vein endothelial cells by MTT assay
Assay type: cell-based
Settings: Table 4, 48 hours
Procedure: A growth factor, VEGF, or notoginsenoside R1, etc. were used as control groups to screen a plant extract for promoting proliferation of vein endothelial cells and estimating activity of the plant extract. The experimental method is described as follows. Human umbilical vein endothelial cells were inoculated in a 96 well plate coated with gelatin with a density of 5×10^3 cells/well, and cultured with M199 complete medium in a 37° C. incubator with 5% CO2 overnight. The next day, the medium in the 96 well plate was changed to a medium containing a test plant extract with a specific concentration and a fresh 5% serum without ECGS, and then the culture plate was incubated. After 48 hours, activity of cells in the culture plate were analyzed by MTT assay and quantitated to obtain the information of the-functional specice of plant, the best part of the plant and the best extraction method for the plant for promoting the proliferation of human umbilical vein endothelial cells.
The extract of whole plants of Sambucus formosana Nakai (Herb 1) and the extract of roots of Isatis indigotica Fort. (Herb 2) were diluted 10-fold from 100 μg/mL which was an effective concentration from the primary screening to 0.1 μg/mL to determine the effective range and dose-response of the herbal extracts. The results of the proliferation assay for cells treated with different single-plant extracts are shown in FIG. 1A and Table 4, the results of the activity assay for cells treated with a combination of plant extracts are shown in FIG. 1B and Table 5, and the results of the proliferation assay for cells treated with extracts of specific parts of the plant are shown in FIG. 1C and Table 6. The two kinds of herbs with a concentration of 100 μg/mL have significant effects for promoting growth of vein endothelial cells, and are capable of achieving a promoting effect equivalent to that of VEGF.

Compound	Cell growth rate (%) (mean ± standard deviation) (0.005 μM)	Cell growth rate (%) (mean ± standard deviation) (0.05 μM)	Cell growth rate (%) (mean ± standard deviation) (0.5 μM)	Cell growth rate (%) (mean ± standard deviation) (5 μM)	Cell growth rate (%) (mean ± standard deviation) (0.05 μg/mL)	Cell growth rate (%) (mean ± standard deviation) (0.5 μg/mL)	Cell growth rate (%) (mean ± standard deviation) (5 μg/mL)	Cell growth rate (%) (mean ± standard deviation) (50 μg/mL)
C=CCSSCC=C [Diallyl disulfide (DADS), Diallyl disulfide]	107 ± 6	110 ± 2	101 ± 9	108 ± 4				
CC(C)=CCC[C@](C)(O[C@@H]1O[C@H](CO)[C@@H](O)[C@H](O)[C@H]1O)[C@H]1CC[C@]2(C)[C@@H]1[C@H](O)C[C@@H]1[C@@]3(C)CC[C@H](O)C(C)(C)[C@@H]3[C@@H](O[C@@H]3O[C@H](CO)[C@@H](O)[C@H](O)[C@H]3O[C@@H]3OC[C@@H](O)[C@H](O)[C@H]3O)C[C@]12C [Notoginsenoside R1]					118 ± 5	95 ± 9	107 ± 18	91 ± 4
C=CCSCC=C [Diallyl sulfide (DAS), Diallyl sulfide]	113 ± 12	123 ± 11	108 ± 2	148 ± 1				
